Experimental data as given in publication PMC10647531, “Effects of Icariin and Its Metabolites on GPCR Regulation and MK-801-Induced Schizophrenia-Like Behaviors in Mice” (Molecules, 2023).

Assays:
MK-801-treated mice [1] = assay: Acoustic startle response task (ASRT), prepulse inhibition; type: in vivo
Procedure: (§1) The mice were housed in the University Animal Care Unit for one week prior to the experiment. Each cage housed 10 mice, and all mice had unlimited access to water and food. […] The Institutional Animal Care and Use Committee of Kyung Hee University approved the mouse experimental protocols (approval number: KHUASP-22-530).
The ASRT was conducted using SR-LAB startle chambers (San Diego Instruments, San Diego, CA, USA), consisting of a box that can lightly confine the mice, a system that can generate sound stimuli regularly, equipment that can measure animal movements, a program that can digitize the measured stimuli, and a source and speaker that can provide sound. The ASRT sessions included three trials: non-stimulus (PPI-1), startle (pulse alone, PPI-2), and prepulse (prepulse + pulse, PPI-3). The PPI-1 trial consisted of background noise only. The PPI-2 trial consisted of constant noise (80−120 dB, five sections) for 40 ms. The PPI-3 trial consisted of a noise prepulse ([…], which are 3, 6, 12, and 16 dB above the background noise, respectively) for 20 ms, a delay for 80 ms, and a 120 dB startle pulse for 40 ms. The percentage score for PPI was calculated as follows: % PPI = [(PPI-2 – PPI-3)/(PPI-2)] × 100(%).

hMAO-A = target: T1, hMAO-A (Homo sapiens, UniProt P21397); assay: In vitro hMAO-inhibitory assay (MAO-Glo), hMAO-A; type: biochemical; conditions: mean ± SD of triplicate experiments
T1 sequence (P21397 1-527): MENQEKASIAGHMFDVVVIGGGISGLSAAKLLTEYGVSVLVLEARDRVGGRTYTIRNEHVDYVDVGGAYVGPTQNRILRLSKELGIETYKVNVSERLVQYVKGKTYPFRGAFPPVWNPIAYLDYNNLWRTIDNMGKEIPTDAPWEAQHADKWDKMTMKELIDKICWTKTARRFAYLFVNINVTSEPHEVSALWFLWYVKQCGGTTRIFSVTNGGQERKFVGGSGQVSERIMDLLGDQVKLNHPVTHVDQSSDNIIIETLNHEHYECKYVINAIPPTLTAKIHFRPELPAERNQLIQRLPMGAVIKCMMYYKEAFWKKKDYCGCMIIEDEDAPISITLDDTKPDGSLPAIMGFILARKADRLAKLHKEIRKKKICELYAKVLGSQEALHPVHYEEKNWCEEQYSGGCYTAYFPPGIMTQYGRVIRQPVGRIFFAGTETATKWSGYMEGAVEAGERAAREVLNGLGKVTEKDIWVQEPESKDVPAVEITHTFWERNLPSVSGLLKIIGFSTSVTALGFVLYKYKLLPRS
Excerpt: (§2) A homogeneous luminescent assay using the MAO-Glo™ assay kit (Promega, Madison, WI, USA) was used to evaluate the hMAO-inhibitory activity of icariin and its metabolites according to the manufacturer’s protocol.

MK-801-treated mice [2] = assay: Social novelty preference test (SNPT); type: in vivo
Excerpt: as §1
Three chambers in a rectangular Plexiglas box (w × d × h: 94 × 28 × 30 cm) were used for the SNPT. The left, right, and central chambers were all joined together by openings (w × d: 6 × 28 cm). On the center of the left and right chambers, an iron muntin cylinder lockup (h × d: 11 × 12 cm) was installed. A test mouse was allowed to interact with another mouse that was trapped in the cylinder lockup. A test mouse was placed in the middle chamber during the acclimatization trial (trial-1, 10 min) and was allowed to freely explore all three compartments through the apertures. A mouse that was younger than the test mouse was placed in a lockup in the first sociability experiment (trial-2) following trial-1, while the other lockup remained. The test mouse was taken to the center compartment and allowed to wander around. The second sociability trial (trial-3) was performed immediately after trial-2. A new mouse that was younger than the test mouse was put in the empty cell during trial-3 (10 min), and the test mouse was put into an empty lockup and allowed to explore.

M4 mACh receptor (M4R) [3] = target: T2, M4 mACh receptor (M4R) (Homo sapiens, UniProt P08173); assay: cAMP agonist assay (M4R); conditions: 100 μM
T2 sequence (P08173 1-479): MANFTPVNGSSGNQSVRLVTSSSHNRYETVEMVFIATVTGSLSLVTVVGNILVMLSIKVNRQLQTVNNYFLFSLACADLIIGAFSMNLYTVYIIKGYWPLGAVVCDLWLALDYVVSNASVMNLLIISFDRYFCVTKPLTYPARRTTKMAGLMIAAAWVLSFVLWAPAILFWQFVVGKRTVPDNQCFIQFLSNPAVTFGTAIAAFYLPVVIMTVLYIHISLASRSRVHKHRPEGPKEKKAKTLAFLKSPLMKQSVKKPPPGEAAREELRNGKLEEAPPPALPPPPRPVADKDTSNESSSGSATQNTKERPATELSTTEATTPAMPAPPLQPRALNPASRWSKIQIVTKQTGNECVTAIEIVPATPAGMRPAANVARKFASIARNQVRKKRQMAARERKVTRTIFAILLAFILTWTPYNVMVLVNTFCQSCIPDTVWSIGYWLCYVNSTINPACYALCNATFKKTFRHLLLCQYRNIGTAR

[4] = tested on: ferrous-treated rat brain homogenates; assay: Lipid peroxidation assay (TBARS); type: biochemical; conditions: rat brain homogenate; mean ± SD of triplicate experiments
Procedure: Whole brain homogenates from male Sprague-Dawley rats (6 months old) were prepared according to procedures described in previous studies. […] After 1 h of incubation at 37 °C, the stop solution was added to the reaction mixture. After incubation in boiling water for 1 h, the reaction mixture was extracted with normal butanol and centrifuged (1300× g for 10 min).

hMAO-B = target: T3, hMAO-B (Homo sapiens, UniProt P27338); assay: In vitro hMAO-inhibitory assay (MAO-Glo), hMAO-B; type: biochemical; conditions: mean ± SD of triplicate experiments
T3 sequence (P27338 1-520): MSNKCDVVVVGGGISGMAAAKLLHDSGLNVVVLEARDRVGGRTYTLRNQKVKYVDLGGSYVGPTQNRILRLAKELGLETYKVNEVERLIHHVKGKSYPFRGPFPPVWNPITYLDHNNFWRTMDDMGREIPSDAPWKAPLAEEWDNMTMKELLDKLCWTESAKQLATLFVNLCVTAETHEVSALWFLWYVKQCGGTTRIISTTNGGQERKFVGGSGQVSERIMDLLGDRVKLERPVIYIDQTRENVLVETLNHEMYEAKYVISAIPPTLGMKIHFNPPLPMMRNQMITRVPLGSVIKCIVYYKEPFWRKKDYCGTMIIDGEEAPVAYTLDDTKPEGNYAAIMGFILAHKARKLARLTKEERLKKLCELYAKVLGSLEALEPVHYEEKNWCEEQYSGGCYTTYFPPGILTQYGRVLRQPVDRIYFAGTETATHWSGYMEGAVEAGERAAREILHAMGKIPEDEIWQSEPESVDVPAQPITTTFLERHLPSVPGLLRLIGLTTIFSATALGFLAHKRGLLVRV
Excerpt: as §2

[5] = target: T4, muscarinic acetylcholine M2 receptor (M2R) (Homo sapiens, UniProt P08172); assay: Radioligand binding assay ([3H]AF-DX 384, CHO-M2R membrane homogenates); parameters: host or cells: CHO-K1
T4 sequence (P08172 1-466): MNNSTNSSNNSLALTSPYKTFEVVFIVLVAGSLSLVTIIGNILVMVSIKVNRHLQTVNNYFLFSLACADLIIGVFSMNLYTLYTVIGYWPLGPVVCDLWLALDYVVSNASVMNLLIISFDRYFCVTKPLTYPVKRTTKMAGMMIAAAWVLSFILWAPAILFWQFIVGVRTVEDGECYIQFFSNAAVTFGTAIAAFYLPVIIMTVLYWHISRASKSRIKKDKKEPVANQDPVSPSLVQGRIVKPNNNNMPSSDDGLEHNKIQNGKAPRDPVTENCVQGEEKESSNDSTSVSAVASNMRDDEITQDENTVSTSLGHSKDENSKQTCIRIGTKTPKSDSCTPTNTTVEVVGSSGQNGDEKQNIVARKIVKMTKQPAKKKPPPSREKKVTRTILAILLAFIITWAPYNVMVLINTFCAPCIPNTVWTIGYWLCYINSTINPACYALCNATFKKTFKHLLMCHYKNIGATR
Procedure: (§3) Next, 10 μM (f.c.) (+)-butaclamol (for D3R) and 1 μM (f.c.) atropine (for M2R) were used to detect nonspecific binding in the respective assays. The binding affinity of a test compound was calculated as the inhibition (%) of control (radioligand)-specific binding.

M4 mACh receptor (M4R) [6] = target: T2, M4 mACh receptor (M4R); assay: cAMP antagonist assay (M4R); conditions: read-out: Antagonist effect (%) M4 (inhibition of the control agonist response)
[7] = target: T4, muscarinic acetylcholine M2 receptor (M2R); conditions: 100 μM; control agonist 300 nM ACh
[8] = parameters: method as in PMID 31844591; conditions: cited from earlier work
[9] = target: T5, vasopressin 1A receptor (V1AR) (Homo sapiens, UniProt P37288); type: cell-based; conditions: 100 μM; stimulus AVP (10 nM)
T5 construct: host or cells: CHO-K1
Excerpt: a All products including cell-line and reagents were provided by Cerep (Cel le L'Evescault, France).

Human D3R = target: T6, Human D3R (Homo sapiens, UniProt P35462); type: binding; conditions: 50 μM
T6 construct: expressed in transfected cells; host or cells: CHO-K1 (membrane homogenates)
Procedure: as §3

T6 sequence (P35462 whole entry): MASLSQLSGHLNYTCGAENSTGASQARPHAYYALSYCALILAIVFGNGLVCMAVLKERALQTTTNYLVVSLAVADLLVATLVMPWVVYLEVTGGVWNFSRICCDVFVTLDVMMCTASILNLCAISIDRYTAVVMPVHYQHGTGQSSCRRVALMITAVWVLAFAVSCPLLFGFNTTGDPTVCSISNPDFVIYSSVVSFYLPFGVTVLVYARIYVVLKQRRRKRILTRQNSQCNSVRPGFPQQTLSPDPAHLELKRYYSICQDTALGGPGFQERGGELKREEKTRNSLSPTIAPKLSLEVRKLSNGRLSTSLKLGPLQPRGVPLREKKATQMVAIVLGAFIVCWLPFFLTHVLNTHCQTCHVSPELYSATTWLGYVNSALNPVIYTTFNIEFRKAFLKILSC
T5 sequence (P37288 whole entry): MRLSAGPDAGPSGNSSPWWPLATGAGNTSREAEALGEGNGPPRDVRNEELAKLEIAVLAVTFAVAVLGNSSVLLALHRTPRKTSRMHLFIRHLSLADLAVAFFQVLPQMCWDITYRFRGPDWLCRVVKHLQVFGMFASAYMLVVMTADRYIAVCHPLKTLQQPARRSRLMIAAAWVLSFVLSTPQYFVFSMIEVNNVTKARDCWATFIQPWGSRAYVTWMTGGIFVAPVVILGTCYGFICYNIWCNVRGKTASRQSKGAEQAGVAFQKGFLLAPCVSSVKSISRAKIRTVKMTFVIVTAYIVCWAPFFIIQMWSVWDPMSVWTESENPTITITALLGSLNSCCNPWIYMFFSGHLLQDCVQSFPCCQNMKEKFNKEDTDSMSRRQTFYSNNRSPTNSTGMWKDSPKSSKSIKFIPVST

COc1ccc(-c2oc3c(CC=C(C)C)c(O[C@@H]4O[C@H](CO)[C@@H](O)[C@H](O)[C@H]4O)cc(O)c3c(=O)c2O[C@@H]2O[C@@H](C)[C@H](O)[C@@H](O)[C@H]2O)cc1 [Icariin, icariin]
effect on MK-801-induced PPI deficits (MK-801-treated mice [1]; 3 and 10 mg/kg, p.o., at +12 and +16 dB above the background noise): significantly reversed
IC50 (hMAO-A): 422 ± 7.07 µM
effect on MK-801-induced social interaction deficits (MK-801-treated mice [2]; 3 and 10 mg/kg, p.o.): significantly reversed
agonist effect assay on M4R (M4 mACh receptor (M4R) [3]): opposite effect to that of icariside II
IC50 [4]: 301 ± 2.16 µM
IC50 (hMAO-B): > 500 µM

COc1ccc(-c2oc3c(CC=C(C)C)c(O)cc(O)c3c(=O)c2O)cc1 [Icaritin, icaritin]
effect on MK-801-induced PPI deficits (MK-801-treated mice [1]; 1, 3, and 10 mg/kg, p.o.): no significant effects
Radioligand specific binding (%) (M2R) ([5]; 100 μM): 81.95%
Radioligand specific binding (%) (M2R) ([5]; 150 μM): 64.00%
blocked radioligand binding to the target binding site (M2R) ([5]; 150 μM): 36%
IC50 (hMAO-A): > 500 µM
effect on MK-801-induced social interaction deficits (MK-801-treated mice [2]; 3 and 10 mg/kg, p.o.): significantly reversed
IC50 [4]: 81.3 ± 3.09 µM
inhibition at 100 µM (M4 mACh receptor (M4R) [6]): 32.4%
Antagonist effect (%) M2 [7]: 54.55%
blood-brain barrier penetration [8]: could penetrate the blood-brain barrier (BBB) readily
IC50 (hMAO-B): > 500 µM

C[C@]12N[C@H](Cc3ccccc31)c1ccccc12 [MK-801]
acoustic startle amplitude (MK-801-treated mice [1]; 0.2 mg/kg alone (i.p.), at 120 dB): significantly increased
prepulse inhibition (PPI) (MK-801-treated mice [1]; 0.2 mg/kg alone (i.p.), at +3, +6, +12, and +16 dB above the background noise (70 dB)): decreased
amount of time spent in the chamber with the unknown mouse (MK-801-treated mice [2]; alone, 0.2 mg/kg, i.p., compared with control group): considerably reduced

Cc1c(C)c2c(c(C)c1O)CCC(C)(C(=O)O)O2 (centres unmarked) [Trolox, reference compound]
IC50 [4]: 32.3 ± 3.21 µM

O=C1CCc2ccc(OCCCCN3CCN(c4cccc(Cl)c4Cl)CC3)cc2N1 [aripiprazole, reference compound]
effect on MK-801-induced PPI deficits (MK-801-treated mice [1]; 1 mg/kg, i.p., at +12 and +16 dB above the background noise): significantly reversed
effect on MK-801-induced social interaction deficits (MK-801-treated mice [2]; 1 mg/kg, i.p.): significantly reversed

icariside II
effect on MK-801-induced PPI deficits (MK-801-treated mice [1]; 1, 3, and 10 mg/kg, p.o.): no significant effects
antagonist effect on V1AR [9]: 42.0%
effect on MK-801-induced social interaction deficits (MK-801-treated mice [2]; 1, 3, and 10 mg/kg, p.o.): significantly reversed
agonist effect assay on M4R (M4 mACh receptor (M4R) [3]): has an agonist effect
IC50 [4]: 70.4 ± 2.04 µM
radioligand binding to the target binding site (D3R) (Human D3R): almost completely blocked
